Results on 18 substances are retold here after patent publication US20240150423A1, “GLP-1 ANALOGUE-MODIFIED DIMERS WITH DIFFERENT CONFIGURATIONS, PREPARATION METHOD THEREOF, AND APPLICATION THEREOF IN TREATMENT OF TYPE II DIABETES” (Nanjing Finepeptide Biopharmaceutical Co.,Ltd, priority 2019, published 2024).

Positions of bridges follow the written chain, without caps; N, C: chain ends. Non-standard residues stand in square brackets, D forms with d. Chains are numbered I, II in the order given. No end group written: not given here. bAib = not defined here; βAib = beta-Aib residue

The test system of one experiment is Normal Kunming (KM) mice. As to the kind of experiment: multiple OGTT (mOGTT): hypoglycemic duration after a single administration. Type of experiment: in vivo. As to conditions: monomeric peptides, single injection at the same dose (1.126 nmol), subcutaneous. The essentials: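 Single administration in normal Kunming mice, followed by oral glucose loading with tail-vein glucose sampled at 0–120 min (0, 10, 20, 40, 60, 120 min). Effective duration ended once mean glucose exceeded the NaCl control group on two occasions.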
On to “His-βAib-Glu-Gly-Thr-Phe-Thr-Ser-Asp-Val-Cys-Ser-Tyr-Leu-Glu-Gly-Gln-Ala-Ala-Lys-Glu-Phe-Ile-Ala-Trp-Leu-Val-Lys-βAib-Arg-NH2 (H[βAib]EGTFTSDVCSYLEGQAAKEFIAWLVK[βAib]R-NH2; also: disulfide-linked homodimer via Cys) [G2 series 17]”, for which the “Hypoglycemic” value is 3 days.
As for “His-aAib-Glu-Gly-Thr-Phe-Thr-Cys-Asp-Val-Ser-Ser-Tyr-Leu-Glu-Gly-Gln-Ala-Ala-Lys[N-ϵ-(N-α-oleoyl-L-γ-glutamyl)]-Glu-Phe-Ile-Ala-Trp-Leu-Val-Arg-Gly-Arg-Gly-OH (HXEGTFTCDVSSYLEGQAAXEFIAWLVRGRG; Aib; oleoyl-gamma-Glu on Lys; C-terminal acid; Sequence is synthesized; (2)..(2) Xaa is aAib; (20)..(20) Xaa is 26Lys[N-e-(N-a-oleoyl-L-g-glutamyl)]; (31)..(31) C-terminal) [G8 series 63]”, the “Hypoglycemic” value worked out at 2 days.
The same measure, in the same setting: in the case of “His-Ala-Glu-Gly-Thr-Phe-Thr-Ser-Asp-Val-Cys-Ser-Tyr-Leu-Glu-Gly-Gln-Ala-Ala-Lys[N-ϵ-(N-α-oleoyl)]-Glu-Phe-Ile-Ala-Trp-Leu-Val-Arg-Gly-Arg-Gly-NH2 (HAEGTFTSDVCSYLEGQAAXEFIAWLVRGRG; oleoyl on Lys; C-terminal amide; Sequence is synthesized; (20)..(20) Xaa is 26Lys[N-e-(N-a-oleoyl-L-g-glutamyl)]; (31)..(31) N-terminal) [G4 series 27]” it was 6 days; in that of “His-Ala-Glu-Gly-Thr-Phe-Thr-Ser-Asp-Val-Cys-Ser-Tyr-Leu-Glu-Gly-Gln-Ala-Ala-Lys[N-ϵ-(N-α-Palmitoyl-L-γ-glutamyl)]-Glu-Phe-Ile-Ala-Trp-Leu-Val-Arg-Gly-Arg-Gly-NH2 (HAEGTFTSDVCSYLEGQAAXEFIAWLVRGRG; palmitoyl-γ-glutamyl on Lys; C-terminal amide; Sequence is synthesized; (20)..(20) Xaa is Xaa is 26Lys[N-e-(N-a-Palmitoyl-g-glutamyl)]; (31)..(31) N-terminal) [G2 series 8]”, 5 days.
Turning to “His-Ala-Glu-Gly-Thr-Phe-Thr-Ser-Asp-Val-Ser-Cys-Tyr-Leu-Glu-Gly-Gln-Ala-Ala-Lys[N-ϵ-(N-α-Palmitoyl)]-Glu-Phe-Ile-Ala-Trp-Leu-Val-Arg-Gly-Arg-Gly-OH (HAEGTFTSDVSCYLEGQAAXEFIAWLVRGRG; not fully specified; palmitoyl on Lys side chain; C-terminal acid; Sequence is synthesized; (20)..(20) Xaa is 26Lys[N-e-(N-a-palmitoyl-L-g-glutamyl)]; (31)..(31) C-terminal) [G4 series 34]”, the “Hypoglycemic” value was determined as 4 days.
For the substance “His-Ala-Glu-Gly-Thr-Phe-Thr-Ser-Asp-Val-Ser-Ser-Tyr-Leu-Glu-Gly-Gln-Ala-Ala-Lys[N-ϵ-(N-α-Palmitoyl-γ-glutamyl)]-Glu-Phe-Ile-Ala-Trp-Leu-Val-Arg-Gly-Arg-Gly-Cys-OH (HAEGTFTSDVSSYLEGQAAXEFIAWLVRGRGC; palmitoyl-γ-glutamyl on Lys; C-terminal acid; Sequence is synthesized; (20)..(20) Xaa is 26Lys[N-e-(N-a-Palmitoyl-g-glutamyl)]; (32)..(32) C-terminal) [G1]”, the “Hypoglycemic (day)” value is “No hypoglycemic”.
With “His-Ala-Glu-Gly-Thr-Phe-Thr-Cys-Asp-Val-Ser-Ser-Tyr-Leu-Glu-Gly-Gln-Ala-Ala-Lys[N-ϵ-(N-α-Palmitoyl-L-γ-glutamyl)]-Glu-Phe-Ile-Ala-Trp-Leu-Val-Arg-Gly-Arg-Gly-OH (HAEGTFTCDVSSYLEGQAAXEFIAWLVRGRG; palmitoyl-gamma-Glu on Lys; C-terminal acid; Sequence is synthesized; (20)..(20) Xaa is 26Lys[N-e-(N-a-palmitoyl-L-g-glutamyl)]; (31)..(31) C-terminal) [G8 series 56]”, the “Hypoglycemic” value came out at 1 days.
As to “His-aAib-Glu-Gly-Thr-Phe-Thr-Ser-Asp-Val-Ser-Cys-Tyr-Leu-Glu-Gly-Gln-Ala-Ala-Lys[N-ϵ-(N-α-Palmitoyl-L-γ-glutamyl)]-Glu-Phe-Ile-Ala-Trp-Leu-Val-Lys[N-ϵ-(N-α-Palmitoyl-L-γ-glutamyl)]-Gly-Arg-Gly-NH2 (HXEGTFTSDVSCYLEGQAAXEFIAWLVXGRG; Aib; two palmitoyl-gamma-Glu on Lys; C-terminal amide; Sequence is synthesized; (2)..(2) Xaa is aAib; (20)..(20) Xaa is 26Lys[N-e-(N-a-palmitoyl-L-g-glutamyl)]; (28)..(28) Xaa is 26Lys[N-e-(N-a-palmitoyl-L-g-glutamyl)]; (31)..(31) N-terminal) [G5 series 42]”, the “Hypoglycemic” value came out at 3 days.
Still for that read-out and setting: in the case of “His-βAib-Glu-Gly-Thr-Phe-Thr-Cys-Asp-Val-Ser-Ser-Tyr-Leu-Glu-Gly-Gln-Ala-Ala-Lys[N-ϵ-(N-α-oleoyl-L-γ-glutamyl)]-Glu-Phe-Ile-Ala-Trp-Leu-Val-Arg-Gly-Arg-Gly-NH2 (HXEGTFTCDVSSYLEGQAAXEFIAWLVRGRG; beta-Aib; oleoyl-gamma-Glu on Lys; C-terminal amide; Sequence is synthesized; (2)..(2) Xaa is bAib; (20)..(20) Xaa is 26Lys[N-e-(N-a-oleoyl-L-g-glutamyl)]; (31)..(31) N-terminal) [G8 series 66]” it was 3 days; in that of “His-βAib-Glu-Gly-Thr-Phe-Thr-Ser-Asp-Val-Ser-Cys-Tyr-Leu-Glu-Gly-Gln-Ala-Ala-Lys[N-ϵ-(N-α-Palmitoyl-L-γ-glutamyl)]-Glu-Phe-Ile-Ala-Trp-Leu-Val-Lys[N-ϵ-(N-α-Palmitoyl-L-γ-glutamyl)]-Gly-Arg-Gly-NH2 (HXEGTFTSDVSCYLEGQAAXEFIAWLVXGRG; not fully specified; beta-Aib; two palmitoyl-gamma-Glu on Lys; C-terminal amide; Sequence is synthesized; (2)..(2) Xaa is bAib; (20)..(20) Xaa is 26Lys[N-e-(N-a-palmitoyl-L-g-glutamyl)]; (28)..(28) Xaa is 26Lys[N-e-(N-a-palmitoyl-L-g-glutamyl)]; (31)..(31) N-terminal) [G5 series 43]”, 3 days; in that of “His-aAib-Glu-Gly-Thr-Phe-Thr-Ser-Asp-Val-Cys-Ser-Tyr-Leu-Glu-Gly-Gln-Ala-Ala-Lys[N-ϵ-(N-α-Palmitoyl)]-Glu-Phe-Ile-Ala-Trp-Leu-Val-Arg-Gly-Arg-Gly-NH2 (HXEGTFTSDVCSYLEGQAAXEFIAWLVRGRG; αAib; palmitoyl on Lys; C-terminal amide; Sequence is synthesized; (2)..(2) Xaa is aAib; (20)..(20) Xaa is 26Lys[N-e-(N-a-palmitoyl-L-g-glutamyl)]; (31)..(31) N-terminal) [G4 series 28]”, 7 days.

Still in this experiment, the particulars now being: single injection at the same dose (1.126 nmol), subcutaneous.
For “2G5 series 43: disulfide-linked homodimer of monomer SEQ ID NO: 43 (HXEGTFTSDVSCYLEGQAAXEFIAWLVXGRG; disulfide-linked homodimer; Sequence is synthesized; (2)..(2) Xaa is bAib; (20)..(20) Xaa is 26Lys[N-e-(N-a-palmitoyl-L-g-glutamyl)]; (28)..(28) Xaa is 26Lys[N-e-(N-a-palmitoyl-L-g-glutamyl)]; (31)..(31) N-terminal)”, the “Hypoglycemic duration” value turned out to be 7 days.
On the same count and under the same terms, in the case of “2G4 series 34: disulfide-linked homodimer of monomer SEQ ID NO: 34 (HAEGTFTSDVSCYLEGQAAXEFIAWLVRGRG; not fully specified; disulfide-linked homodimer; Sequence is synthesized; (20)..(20) Xaa is 26Lys[N-e-(N-a-palmitoyl-L-g-glutamyl)]; (31)..(31) C-terminal)” it was 13 days; in that of “2G4 series 39: disulfide-linked homodimer of monomer SEQ ID NO: 39 (HXEGTFTSDVSCYLEGQAAXEFIAWLVRGRG; disulfide-linked homodimer; Sequence is synthesized; (2)..(2) Xaa is bAla; (20)..(20) Xaa is 26Lys[N-e-(N-a-oleoyl-L-g-glutamyl)]; (31)..(31) N-terminal)”, 16 days; in that of “2G2 series 17: disulfide-linked homodimer of monomer SEQ ID NO: 17 (chain 1 H[bAib]EGTFTSDVCSYLEGQAAKEFIAWLVK[bAib]R-NH2; chain 2 H[bAib]EGTFTSDVCSYLEGQAAKEFIAWLVK[bAib]R-NH2; disulfide I:11-II:11 (inferred); not fully specified; reading uncertain; also: disulfide-linked homodimer)”, 4 days.
For the substance “2G5 series 40: disulfide-linked homodimer of monomer SEQ ID NO: 40 (HAEGTFTSDVSCYLEGQAAXEFIAWLVXGRG; disulfide-linked homodimer; Sequence is synthesized; (20)..(20) Xaa is 26Lys[N-e-(N-a-palmitoyl-L-g-glutamyl)]; (28)..(28) Xaa is 26Lys[N-e-(N-a-palmitoyl-L-g-glutamyl)]; (31)..(31) C-terminal)”, the “Hypoglycemic duration (days)” value is 3 (2G5 peptide) days.
Regarding “2G4 series 25: disulfide-linked homodimer of monomer SEQ ID NO: 25 (HAEGTFTSDVCSYLEGQAAXEFIAWLVRGRG; not fully specified; disulfide-linked homodimer; Sequence is synthesized; (20)..(20) Xaa is 26Lys[N-e-(N-a-palmitoyl-L-g-glutamyl)]; (31)..(31) N-terminal)”, the “Hypoglycemic duration” value was determined as 14 days.
Still for that read-out and setting: the result for “2G5 series 44: disulfide-linked homodimer of monomer SEQ ID NO: 44 (HXEGTFTSDVSCYLEGQAAXEFIAWLVXGRG; disulfide-linked homodimer; Sequence is synthesized; (2)..(2) Xaa is bAla; (20)..(20) Xaa is 26Lys[N-e-(N-a-palmitoyl-L-g-glutamyl)]; (28)..(28) Xaa is 26Lys[N-e-(N-a-palmitoyl-L-g-glutamyl)]; (31)..(31) N-terminal)” reads 6 days.
